Test results as given in patent US20220315554A1, “COMPOUNDS COMPRISING A […] LIGAND AND USE THEREOF” (priority 2019, published 2022).
Numbered stars: 1 amine (or outer) side, 2 acyl side, 3 side chain; on linkers, the order of the positions; unused ones are H or OH. Bridge positions count the residues as written; N and C are the ends. Square brackets hold non-standard residues; d marks the D form. Peptide text beside a SMILES is read from it. * marks the point of attachment. X19 = NC(=O)[C@H](CCCCNC(=O)CN1CCN(CC(=O)O)CCN(CC(=O)O)CCN(CC(=O)O)CC1)NC(=O)CCC(=O)NCCCOCCOCCNCCCN*; X22 = O=C1CN2CCN3CCN(CC(=O)N4CCN(Cc5cc(C[*:1])cc(C[*:2])c5)CC4)CCN(CC2)CC(=O)[O][Lu]([O]1)[O]C(=O)C3; X8 = O=C1CN2CCN3CCN(CC(=O)N4CCN(Cc5cc(C[*:1])cc(C[*:2])c5)CC4)CCN(CC2)CC(=O)[O][Ga]([O]1)[O]C(=O)C3; X13 = O=C(O)CN1CCN(CC(=O)O)CCN(CC(=O)NCCSCc2cc(CSCCN[*:2])cc(C[*:1])c2)CCN(CC(=O)O)CC1; NH(CH2)5NHDOTA = O=C(O)CN1CCN(CC(=O)O)CCN(CC(=O)NCCCCCN*)CCN(CC(=O)O)CC1; X2 = O=C(O)CN1CCN(CC(=O)O)CCN(CC(=O)NCCCOCCOCCOCCCN*)CCN(CC(=O)O)CC1; mXylylene = c1cc(C[*:1])cc(C[*:2])c1; Pentanesulfonyl = CCCCCS(=O)(=O)*; Suc = O=C(CCC(=O)[*:2])[*:1]; Nle = CCCC[C@H](N)C(=O)O; Hexanoyl = CCCCCC(=O)*

Assays:
[1] = biological target: T1, FAP-expressing human WI-38 fibroblasts (Homo sapiens, UniProt Q12884); test: Competitive FACS binding assay; details: pIC50 Category (FACS), competition with 3 nM Cy5-labeled compound, 4° C., 1 hour
T1 construct: FAP-expressing human WI-38 fibroblasts (ECACC) were cultured in EMEM; host or cells: WI-38 human fibroblasts
T1 sequence (Q12884 1-760): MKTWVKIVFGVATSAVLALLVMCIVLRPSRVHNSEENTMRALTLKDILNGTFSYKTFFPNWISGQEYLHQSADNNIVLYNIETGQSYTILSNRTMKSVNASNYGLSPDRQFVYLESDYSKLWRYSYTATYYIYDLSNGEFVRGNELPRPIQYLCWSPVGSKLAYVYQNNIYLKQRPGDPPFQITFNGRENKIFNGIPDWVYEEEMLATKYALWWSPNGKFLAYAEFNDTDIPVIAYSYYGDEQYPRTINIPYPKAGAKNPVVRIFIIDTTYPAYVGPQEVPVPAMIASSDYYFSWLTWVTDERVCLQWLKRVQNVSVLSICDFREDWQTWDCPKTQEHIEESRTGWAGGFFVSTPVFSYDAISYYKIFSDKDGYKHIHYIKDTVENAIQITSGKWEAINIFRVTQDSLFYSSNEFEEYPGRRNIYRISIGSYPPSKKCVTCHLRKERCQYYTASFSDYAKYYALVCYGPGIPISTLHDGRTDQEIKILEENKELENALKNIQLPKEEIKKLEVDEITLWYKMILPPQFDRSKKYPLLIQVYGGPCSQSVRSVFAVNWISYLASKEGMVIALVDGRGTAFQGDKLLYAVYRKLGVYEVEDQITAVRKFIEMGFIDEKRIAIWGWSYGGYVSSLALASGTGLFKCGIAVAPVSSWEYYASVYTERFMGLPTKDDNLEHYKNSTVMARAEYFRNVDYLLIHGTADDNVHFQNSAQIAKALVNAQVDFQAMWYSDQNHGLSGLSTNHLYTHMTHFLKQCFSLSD
Description: Cells were analyzed in an Attune NxT flow cytometer. […]

Human recombinant FAP [2] = biological target: T2, Human recombinant FAP (Homo sapiens, UniProt Q12884); test: Surface plasmon resonance (Biacore) assay; format: binding
T2 sequence (Q12884 1-760): T1 sequence (Q12884 1-760)

Human recombinant FAP [3] = biological target: T2, Human recombinant FAP; test: FRET-based FAP protease activity assay; format: biochemical; set-up: purchased R&D systems 3715-SE; details: pIC50 Category (Activity), FRET substrate, 37° C.

CCCCCC(=O)N[C@H]1CSCc2cccc(c2)CSC[C@@H](C(=O)N[C@@H](CC(=O)O)C(=O)NCCCNCCOCCOCCCNC(=O)CCC(=O)N[C@@H](CCCCNC(=O)CN2CCN(CC(=O)O)CCN(CC(=O)O)CCN(CC(=O)O)CC2)C(N)=O)NC(=O)[C@H](Cc2ccccc2)NC(=O)[C@H](CCC(=O)O)NC(=O)[C@H]([C@@H](C)O)NC(=O)[C@@H]2CCCN2C(=O)[C@@H]2CCCN2C1=O [3BP-3396, Hex-[Cys(3MeBn)-Pro-Pro-Thr-Glu-Phe-Cys]-Asp-Ttds-Lys(DOTA)-NH2] (Hexanoyl-CPPTEFCD-X19; linker 1-7 via mXylylene)
< 10 nM: IC50 ([1]; WI-38 fibroblasts) | Kd (Human recombinant FAP [2]) | IC50 (Human recombinant FAP [3]; recombinant human FAP)

CCCC[C@H](NC(=O)CCC(=O)NCCCOCCOCCOCCCNC(=O)CN1CCN(CC(=O)O)CCN(CC(=O)O)CCN(CC(=O)O)CC1)C(=O)N[C@H]1CSCc2cccc(c2)CSC[C@@H](C(=O)N[C@@H](CC(=O)O)C(N)=O)NC(=O)[C@H](Cc2ccccc2)NC(=O)[C@H](CCC(N)=O)NC(=O)[C@H]([C@@H](C)O)NC(=O)[C@@H]2CCCN2C(=O)[C@@H]2CCCN2C1=O [3BP-3401, DOTA-Ttds-Nle-[Cys(3MeBn)-Pro-Pro-Thr-Gln-Phe-Cys]-Asp-NH2] ({X2-Suc}-[Nle]CPPTQFCD-NH2; linker 2-8 via mXylylene)
< 10 nM: IC50 ([1]; WI-38 fibroblasts) | Kd (Human recombinant FAP [2]) | IC50 (Human recombinant FAP [3]; recombinant human FAP)

CCCCCC(=O)N[C@H]1CSCc2cccc(c2)CSC[C@@H](C(=O)N[C@@H](CC(=O)O)C(=O)NCCCCCNC(=O)CN2CCN(CC(=O)O)CCN(CC(=O)O)CCN(CC(=O)O)CC2)NC(=O)[C@H](Cc2ccccc2)NC(=O)[C@H](CCC(N)=O)NC(=O)[C@H]([C@@H](C)O)NC(=O)[C@@H]2CCCN2C(=O)[C@@H]2CCCN2C1=O [3BP-3403, Hex-[Cys(3MeBn)-Pro-Pro-Thr-Gln-Phe-Cys]-Asp-Ape(DOTA)] (Hexanoyl-CPPTQFCD-{NH(CH2)5NHDOTA}; linker 1-7 via mXylylene)
< 10 nM: IC50 ([1]; WI-38 fibroblasts) | Kd (Human recombinant FAP [2]) | IC50 (Human recombinant FAP [3]; recombinant human FAP)

CCCCCC(=O)N[C@H]1CSCc2cccc(c2)CSC[C@@H](C(=O)N[C@@H](CCCCNC(=O)CCC(=O)NCCCOCCOCCOCCCNC(=O)CN2CCN(CC(=O)O)CCN(CC(=O)O)CCN(CC(=O)O)CC2)CC(=O)O)NC(=O)[C@H](Cc2ccccc2)NC(=O)[C@H](CCC(N)=O)NC(=O)[C@H]([C@@H](C)O)NC(=O)[C@@H]2CCCN2C(=O)[C@@H]2CCCN2C1=O [3BP-3489, Hex-[Cys(3MeBn)-Pro-Pro-Thr-Gln-Phe-Cys]-Bhk(DOTA-Ttds)-OH]
< 10 nM: IC50 ([1]; WI-38 fibroblasts) | Kd (Human recombinant FAP [2]) | IC50 (Human recombinant FAP [3]; recombinant human FAP)

CCCCCS(=O)(=O)N[C@H]1CSCc2cccc(c2)CSC[C@@H](C(=O)N[C@@H](CC(=O)O)C(N)=O)NC(=O)[C@H](Cc2ccccc2)NC(=O)[C@H](CCC(N)=O)NC(=O)[C@H]([C@@H](C)O)NC(=O)[C@@H]2CCCN2C(=O)[C@@H]2CCCN2C1=O [3BP-3514, Pentyl-SO2-[Cys(3MeBn)-Pro-Pro-Thr-Gln-Phe-Cys]-Asp-NH2] (Pentanesulfonyl-CPPTQFCD-NH2; linker 1-7 via mXylylene)
< 10 nM: IC50 ([1]; WI-38 fibroblasts) | Kd (Human recombinant FAP [2]) | IC50 (Human recombinant FAP [3]; recombinant human FAP)

CCCCCC(=O)N[C@H]1CSCc2cc(cc(CN3CCN(C(=O)CN4CCN5CCN6CCN(CC4)CC(=O)[O][Lu]([O]C(=O)C6)[O]C(=O)C5)CC3)c2)CSC[C@@H](C(=O)N[C@@H](CC(=O)O)C(N)=O)NC(=O)[C@H](Cc2ccccc2)NC(=O)[C@H](CCC(N)=O)NC(=O)[C@H]([C@@H](C)O)NC(=O)[C@@H]2CCCN2C(=O)[C@@H]2CCCN2C1=O [3BP-3591, Lutetium-Complex of Hex-[Cys(tMeBn(DOTA-PP))-Pro-Pro-Thr-Gln-Phe-Cys]-Asp-NH2] (Hexanoyl-CPPTQFCD-NH2; linker 1-7 via X22)
< 10 nM: IC50 ([1]; WI-38 fibroblasts) | Kd (Human recombinant FAP [2]) | IC50 (Human recombinant FAP [3]; recombinant human FAP)

CCCCCC(=O)N[C@H]1CSCc2cc(cc(CN3CCN(C(=O)CN4CCN5CCN6CCN(CC4)CC(=O)[O][Ga]([O]C(=O)C6)[O]C(=O)C5)CC3)c2)CSC[C@@H](C(=O)N[C@@H](CC(=O)O)C(N)=O)NC(=O)[C@H](Cc2ccccc2)NC(=O)[C@H](CCC(N)=O)NC(=O)[C@H]([C@@H](C)O)NC(=O)[C@@H]2CCCN2C(=O)[C@@H]2CCCN2C1=O [3BP-3592, Gallium-Complex of Hex-[Cys(tMeBn(DOTA-PP))-Pro-Pro-Thr-Gln-Phe-Cys]-Asp-NH2] (Hexanoyl-CPPTQFCD-NH2; linker 1-7 via X8)
< 10 nM: IC50 ([1]; WI-38 fibroblasts) | Kd (Human recombinant FAP [2]) | IC50 (Human recombinant FAP [3]; recombinant human FAP)

CCCCCC(=O)N[C@H]1CSCc2cc(CSCCNC(=O)CN3CCN(CC(=O)O)CCN(CC(=O)O)CCN(CC(=O)O)CC3)cc(c2)CSC[C@@H](C(=O)O)NC(=O)[C@H](Cc2cccc3ccccc23)NC(=O)[C@H](CCC(N)=O)NC(=O)[C@H]([C@@H](C)O)NC(=O)[C@@H]2CCCN2C(=O)[C@@H]2CCCN2C1 [3BP-3650, Hex-[Cys(tMeBn(DOTA-AET))-Pro-Pro-Thr-Gln-1Ni-Cys]-OH]
< 10 nM: IC50 ([1]; WI-38 fibroblasts) | Kd (Human recombinant FAP [2]) | IC50 (Human recombinant FAP [3]; recombinant human FAP)

CCCCCC(=O)N[C@H]1CSCc2cc(CSCCNC(=O)CN3CCN(CC(=O)O)CCN(CC(=O)O)CCN(CC(=O)O)CC3)cc(c2)CSC[C@@H](C(=O)NCCC(=O)O)NC(=O)[C@H](Cc2ccccc2)NC(=O)[C@H](CCC(N)=O)NC(=O)[C@H]([C@@H](C)O)NC(=O)[C@@H]2CCCN2C(=O)[C@@H]2CCCN2C1=O [3BP-3651, Hex-[Cys(tMeBn(DOTA-AET))-Pro-Pro-Thr-Gln-Phe-Cys]-Bal-OH]
< 10 nM: IC50 ([1]; WI-38 fibroblasts) | Kd (Human recombinant FAP [2]) | IC50 (Human recombinant FAP [3]; recombinant human FAP)

CCCCCC(=O)N[C@H]1CSCc2cc(CSCCNC(=O)CN3CCN(CC(=O)O)CCN(CC(=O)O)CCN(CC(=O)O)CC3)cc(c2)CSCCNC(=O)[C@H](Cc2ccccc2)NC(=O)[C@H](CCC(N)=O)NC(=O)[C@H]([C@@H](C)O)NC(=O)[C@@H]2CCCN2C(=O)[C@@H]2CCCN2C1=O [3BP-3654, Hex-[Cys(tMeBn(DOTA-AET))-Pro-Pro-Thr-Gln-Phe-AET]] (Hexanoyl-CPPTQF; linker 1-C via X13)
< 10 nM: IC50 ([1]; WI-38 fibroblasts) | Kd (Human recombinant FAP [2]) | IC50 (Human recombinant FAP [3]; recombinant human FAP)

CCCCCC(=O)N[C@H]1CSCc2cc(CSCCNC(=O)CN3CCN(CC(=O)O)CCN(CC(=O)O)CCN(CC(=O)O)CC3)cc(c2)CSC[C@@H](C(=O)NCC(=O)O)NC(=O)[C@H](Cc2ccccc2)NC(=O)[C@H](CCC(N)=O)NC(=O)[C@H]([C@@H](C)O)NC(=O)[C@@H]2CCCN2C(=O)[C@@H]2CCCN2C1 [3BP-3656, Hex-[Cys(tMeBn(DOTA-AET))-Pro-Pro-Thr-Gln-Phe-Cys]-Gly-OH]
< 10 nM: IC50 ([1]; WI-38 fibroblasts) | Kd (Human recombinant FAP [2]) | IC50 (Human recombinant FAP [3]; recombinant human FAP)

CCCCCC(=O)N[C@H]1CSCc2cc(CSCCNC(=O)CN3CCN(CC(=O)O)CCN(CC(=O)O)CCN(CC(=O)O)CC3)cc(c2)CSC[C@@H](C(=O)NCCCC(=O)O)NC(=O)[C@H](Cc2ccccc2)NC(=O)[C@H](CCC(N)=O)NC(=O)[C@H]([C@@H](C)O)NC(=O)[C@@H]2CCCN2C(=O)[C@@H]2CCCN2C1 [3BP-3657, Hex-[Cys(tMeBn(DOTA-AET))-Pro-Pro-Thr-Gln-Phe-Cys]-Gab-OH]
< 10 nM: IC50 ([1]; WI-38 fibroblasts) | Kd (Human recombinant FAP [2]) | IC50 (Human recombinant FAP [3]; recombinant human FAP)

CCCCCC(=O)N[C@H]1CSCc2cc(CSCCNC(=O)CN3CCN(CC(=O)O)CCN(CC(=O)O)CCN(CC(=O)O)CC3)cc(c2)CSC[C@@H](C(=O)N[C@@H](CO)C(=O)O)NC(=O)[C@H](Cc2ccccc2)NC(=O)[C@H](CCC(N)=O)NC(=O)[C@H]([C@@H](C)O)NC(=O)[C@@H]2CCCN2C(=O)[C@@H]2CCCN2C1 [3BP-3658, Hex-[Cys(tMeBn(DOTA-AET))-Pro-Pro-Thr-Gln-Phe-Cys]-Ser-OH]
< 10 nM: IC50 [1] | Kd (Human recombinant FAP [2]) | IC50 (Human recombinant FAP [3])

CCCCCC(=O)N[C@H]1CSCc2cc(CSCCNC(=O)CN3CCN(CC(=O)O)CCN(CC(=O)O)CCN(CC(=O)O)CC3)cc(c2)CSC[C@@H](C(=O)N(C)CC(=O)O)NC(=O)[C@H](Cc2ccccc2)NC(=O)[C@H](CCC(N)=O)NC(=O)[C@H]([C@@H](C)O)NC(=O)[C@@H]2CCCN2C(=O)[C@@H]2CCCN2C1 [3BP-3659, Hex-[Cys(tMeBn(DOTA-AET))-Pro-Pro-Thr-Gln-Phe-Cys]-Nmg-OH]
< 10 nM: IC50 [1] | Kd (Human recombinant FAP [2]) | IC50 (Human recombinant FAP [3])
